The text below walks through data of patent publication US9890103B2, “Process for the production of (meth)acrylic acid and derivatives and polymers produced therefrom” (Lucite International UK Limited, priority 2011, dated 2018).

Structures are written as SMILES.

Data set [1] is described as follows: Concentration dependence of MAA extraction into toluene. The format is physicochemical. As to conditions: toluene/water, fitted to table 3 data. As for the experimental part:
(§1) The following experimental conditions were used unless indicated otherwise:— • 0.1M Acids • 1:1 vol:vol aq:solvent • Room Temperature • 1 minutes agitation time; 5 min settling time • Solvent is toluene unless where stated • Analysis by HPLC
A series of different concentrations of MAA in aqueous solution were extracted into toluene (1:1 by volume vs aqueous solution).
The fraction transferred increases with the concentration of MAA. The data from table 3 were plotted according to the equation: [MAA]tol=K[MAA]^2aq and the value K in the equation was evaluated as 14.6. The results are plotted in FIG. 1.

The nature of data set [2]: Extraction of mono- and dibasic acids from 0.1M aqueous solution into toluene or MMA/toluene mixtures. The class given is physicochemical. The following applies: for degree of extraction: equal volume, in %; for Fraction Transferred to Toluene: each acid 0.1M in water, equal volume of toluene. As for the experimental part:
as §1
Monobasic and dibasic acids likely to be present in aqueous solution following partial decomposition of mono and dicarboxylic acids expected to be found from decomposition of dibasic or tribasic acids were compared for their solubility in toluene.
Each acid, initially at 0.1M solution in water was separately tested for solubility in an equal volume of toluene.
Aqueous solutions were prepared of each of the dicarboxylic acids exemplified in comparative example 2. These were extracted with an equal volume of solvent mixtures of toluene and methyl methacrylate (MMA).
In order to compare the solubilities in the organic solvents in terms of partition coefficients each sample was converted to a partition coefficient based on the equation: [MAA]solv=K[MAA]^2aq

Data set [3] in a line: Solvent screen: transfer of methacrylic acid from aqueous solution into organic solvents. The format is physicochemical. The following applies: 0.1M MAA aq, 1:1 vol:vol, room temperature. As for the experimental part: as §1
A series of solvents were tested to examine the extent of transfer of methacrylic acid from an aqueous solution using the above procedure.

A short description of data set [4]: MAA extraction into 2-butanone/o-xylene 75:25. The format is physicochemical. The following applies: 2-butanone:o-xylene 75:25. The source says: The efficiency of MAA extraction into a mixture of 2-butanone and o-xylene in the ratio 75:25 was studied.
The nature of data set [5]: MAA extraction into toluene with added NaOH and added di/tricarboxylic acids. The format is physicochemical. As to conditions: for amount of MAA transferred into toluene: 0.1M MAA aq, equivalent volume toluene. As for the experimental part:
The following experimental conditions were used unless indicated otherwise:— • 0.1M Acids • 1:1 vol:vol aq:solvent • Room Temperature • 1 minutes agitation time; 5 min settling time • Solvent is toluene unless where stated • Analysis by HPLC […] The results are shown in the first two rows of table 5 […] Very similar results were obtained. […] The aqueous solution was extracted with an equal volume of toluene at room temperature.

For data set [6] the following is noted: 2-butanone:o-xylene 75:25; reported maximum; cited from earlier work.
Data set [7] is described as follows: Extraction of acrylic and maleic acid into toluene/butanone mixtures. The following applies: 0.1M aq solution, equal volume. The format is physicochemical. As for the experimental part:
as §1
In order to increase the solubility of the AA in the organic layer a higher polarity is likely to be required. The extraction of a 0.1M aq AA solution was studied with an equal volume of a mixture between toluene and butanone.

Where [8] appears, read: Fraction of MMA in MMA/Toluene solvent mixture 0.
Setting [9] is: Fraction of MMA in MMA/Toluene solvent mixture 0.1.
Setting [10] is: Fraction of MMA in MMA/Toluene solvent mixture 0.2.
[11] abbreviates: Fraction of MMA in MMA/Toluene solvent mixture 0.3.
Where [12] appears, read: Fraction of MMA in MMA/Toluene solvent mixture 0.4.
Setting [13] is: Fraction of MMA in MMA/Toluene solvent mixture 0.5.
Setting [14] is: Fraction of MMA in MMA/Toluene solvent mixture 0.6.
Setting [15] is: Fraction of MMA in MMA/Toluene solvent mixture 0.7.
The mark [16] stands for this setting: Fraction of MMA in MMA/Toluene solvent mixture 0.8.
[17] abbreviates: Fraction of MMA in MMA/Toluene solvent mixture 0.9.
The mark [18] stands for this setting: Fraction of MMA in MMA/Toluene solvent mixture 1.

As for `C=C(C)C(=O)O` [MAA, Methacrylic Acid], the “K in [MAA]tol=K[MAA]^2aq” value in data set [1] was 14.6. Moreover, the degree of extraction in data set [2] (setting [8]) turned out to be 54.4; in data set [2] (setting [9]), 58.85; in data set [2] (setting [10]) it was 63.01; in data set [2] (setting [11]), 67.25; in data set [2] (setting [12]), 70.31; in data set [2] (setting [13]), 74.28. Besides, the degree of extraction in data set [2] (setting [14]) worked out at 76.77; in data set [2] (setting [15]), 79.42; in data set [2] (setting [16]), 81.42; in data set [2] (setting [17]), 83.02; in data set [2] (setting [18]), 84.28. In addition, in data set [2], the “Fraction Transferred to Toluene” value worked out at 54.4%. In addition, the “Average % Transfer” value in data set [3] (solvent Benzene) came out at 50.1%; in data set [3] (solvent Cyclohexane) it was 26.9%; in data set [3] (solvent Hexane) it was 27.6%; in data set [3] (solvent MMA), 84.3%; in data set [3] (solvent Mixed Xylenes) it was 45.3%; in data set [3] (solvent Pentane), 28.3%. Further, the “Average % Transfer” value in data set [3] (solvent Toluene) stood at 48.2%. Also, the “MAA extracted into the organic phase” value in data set [4] was “roughly 80%”. Besides, in data set [5] (0.1M MAA + 0.05M NaOH + itaconic acid to 0.1M), the “MAA extraction into toluene” value worked out at 44.7%. The entries for the “amount of MAA transferred into toluene” value in data set [5] (after addition of 0.05M sodium hydroxide) and in data set [5] (before NaOH addition) were 26% and 48%, respectively. Also, the “distribution coefficient for MAA, K” value in data set [6] is given as roughly 7.00.
On to `C/C(=C\C(=O)O)C(=O)O` [MC, Mesaconic Acid], for which the degree of extraction in data set [2] (setting [8]) stood at 0.64; in data set [2] (setting [9]), 1.72; in data set [2] (setting [10]) it was 4.5; in data set [2] (setting [11]), 8.26; in data set [2] (setting [12]) it was 13.02; in data set [2] (setting [13]), 20.56. In addition, the degree of extraction in data set [2] (setting [14]) worked out at 27.82; in data set [2] (setting [15]), 38.06; in data set [2] (setting [16]), 47.19; in data set [2] (setting [17]), 56.33; in data set [2] (setting [18]), 63.45. Also, the “Fraction Transferred to Toluene” value in data set [2] was found to be 0.64%.
On to `C=C(CC(=O)O)C(=O)O` [IC, Itaconic Acid], for which the degree of extraction in data set [2] (setting [8]) worked out at 0; in data set [2] (setting [9]) it was 0; in data set [2] (setting [10]), 0.29; in data set [2] (setting [11]), 0.81; in data set [2] (setting [12]), 1.69; in data set [2] (setting [13]), 2.89. In addition, the degree of extraction in data set [2] (setting [14]) came to 4.34; in data set [2] (setting [15]) it was 6.56; in data set [2] (setting [16]), 9.57; in data set [2] (setting [17]) it was 13.1; in data set [2] (setting [18]) it was 17.58. Moreover, the “Fraction Transferred to Toluene” value in data set [2] worked out at 0%.
`CC(=O)C(=O)O` [PY, Pyruvic Acid]: the degree of extraction was 0 in data set [2] (setting [8]); 0 in data set [2] (setting [9]); 0.3 in data set [2] (setting [10]); 0.7 in data set [2] (setting [11]); 1.17 in data set [2] (setting [12]); 2.07 in data set [2] (setting [13]). The degree of extraction was 3.01 in data set [2] (setting [14]); 4.17 in data set [2] (setting [15]); 5.57 in data set [2] (setting [16]); 8.05 in data set [2] (setting [17]); 10.71 in data set [2] (setting [18]). Besides, the “Fraction Transferred to Toluene” value in data set [2] amounted to 0%.
As for `CC(C)(O)C(=O)O` [HIB, Hydroxyisobutyric Acid], the degree of extraction in data set [2] (setting [8]) is listed as 4.21; in data set [2] (setting [9]), 4.8; in data set [2] (setting [10]), 5.14; in data set [2] (setting [11]), 6.38; in data set [2] (setting [12]) it was 4.82; in data set [2] (setting [13]), 5.76. Besides, the degree of extraction is listed as 7.32 in data set [2] (setting [14]); 19.71 in data set [2] (setting [15]); 21.47 in data set [2] (setting [16]); 23.32 in data set [2] (setting [17]); 23.9 in data set [2] (setting [18]). Moreover, the “Fraction Transferred to Toluene” value in data set [2] was 4.21%.
As for `O=C(O)/C=C\C(=O)O` [Maleic acid], the “% extracted” value in data set [7] (0 % Butanone in toluene) was 0%; in data set [7] (10 % Butanone in toluene), 0.32%; in data set [7] (20 % Butanone in toluene), 1.46%; in data set [7] (30 % Butanone in toluene) it was 3.41%; in data set [7] (40 % Butanone in toluene), 5.19%; in data set [7] (50 % Butanone in toluene), 10.62%. Further, the “% extracted” value is reported as 10.77% in data set [7] (60 % Butanone in toluene); 15.01% in data set [7] (70 % Butanone in toluene); 19.88% in data set [7] (80 % Butanone in toluene); 27.09% in data set [7] (90 % Butanone in toluene); 34.32% in data set [7] (100 % Butanone).
As for `C=CC(=O)O` [Acrylic acid], the “% extracted” value in data set [7] (0 % Butanone in toluene) is listed as 5.01%; in data set [7] (10 % Butanone in toluene), 14.57%; in data set [7] (20 % Butanone in toluene) it was 25.26%; in data set [7] (30 % Butanone in toluene), 35.45%; in data set [7] (40 % Butanone in toluene) it was 44.14%; in data set [7] (50 % Butanone in toluene), 53.47%. The “% extracted” value in data set [7] (60 % Butanone in toluene) came to 57.31%; in data set [7] (70 % Butanone in toluene), 63.39%; in data set [7] (80 % Butanone in toluene), 67.47%; in data set [7] (90 % Butanone in toluene), 70.04%; in data set [7] (100 % Butanone), 65.56%.
As to `C/C=C/C(=O)O` [CT, Crotonic Acid], the degree of extraction in data set [2] (setting [8]) is 40.11; in data set [2] (setting [9]), 46.72; in data set [2] (setting [10]), 49.88; in data set [2] (setting [11]), 53.62; in data set [2] (setting [12]), 56.56; in data set [2] (setting [13]), 61.15. In addition, the degree of extraction is reported as 64.67 in data set [2] (setting [14]); 68.07 in data set [2] (setting [15]); 70.86 in data set [2] (setting [16]); 73.21 in data set [2] (setting [17]); 75.05 in data set [2] (setting [18]). For the same compound, in data set [2], the “Fraction Transferred to Toluene” value stood at 40.11%.
